This test addresses SOS1:KRAS (G12C) interaction (Homo sapiens (Human), UniProt Q07889). As to the kind of experiment: SOS1-KRas(G12C) FRET Assay. The conditions noted are these: 0.5 nM His10-SOS1 (res. 564-1049), 2.5 nM GST-KRAS (res. 1-169, G12C); read-out: SOS-KRas(G12C) FRET IC50. It is filed as binding. In a few lines:
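TR-FRET measured binding of His10-SOS1 (res. 564-1049, 0.5 nM) to GST-KRAS G12C (res. 1-169, 2.5 nM), with anti-GST-Eu(K) and anti-6His-XL665 labels, in PBS with BSA, MgCl2, KF and DTT; 0.5% DMSO. Compound and SOS1 were pre-incubated 15 min at 25° C, KRAS was added, and the plate was read at 665/615 nm after 2 h at RT. IC50 and Hill slope came from non-linear regression.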

SMILES strings stand for the structures.

SOS1:KRAS (G12C) interaction, sequence (Q07889 564-1049, stated change not applied): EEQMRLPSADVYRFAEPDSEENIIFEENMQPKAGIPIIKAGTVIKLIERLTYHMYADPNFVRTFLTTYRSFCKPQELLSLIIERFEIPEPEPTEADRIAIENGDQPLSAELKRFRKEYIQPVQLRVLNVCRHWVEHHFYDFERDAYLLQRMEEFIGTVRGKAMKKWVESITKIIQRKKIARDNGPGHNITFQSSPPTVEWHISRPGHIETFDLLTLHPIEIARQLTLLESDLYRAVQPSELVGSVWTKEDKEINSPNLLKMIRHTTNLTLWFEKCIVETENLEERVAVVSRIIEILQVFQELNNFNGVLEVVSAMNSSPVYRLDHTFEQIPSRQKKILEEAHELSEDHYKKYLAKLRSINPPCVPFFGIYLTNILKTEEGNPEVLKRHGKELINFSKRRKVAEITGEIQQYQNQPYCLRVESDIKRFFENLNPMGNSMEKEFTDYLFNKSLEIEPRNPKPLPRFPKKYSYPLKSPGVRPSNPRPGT

A word on the IC50: it is the concentration at which inhibition is half-maximal. For `CC(=O)N1CC(C(F)F)(n2cc3c(N[C@H](C)c4cccc(C(F)F)c4F)nn(C)c(=O)c3cc2=O)C1` [Example 154, (R)-6-(1-acetyl-3-(difluoromethyl)azetidin-3-yl)-4-((1-(3-(difluoromethyl)-2-fluorophenyl)ethyl)amino)-2-methylpyrido[3,4-d]pyridazine-1,7(2H,6H)-dione], the IC50 turned out to be 18.5 nM.
For `C[C@@H](Nc1nn(C)c(=O)c2cc(=O)n(C34CC(C(F)(F)F)(C3)C4)cc12)c1cccc(C(F)F)c1F` [Example 155, (R)-4-((1-(3-(difluoromethyl)-2-fluorophenyl)ethyl)amino)-2-methyl-6-(3-(trifluoromethyl)bicyclo[1.1.1]pentan-1-yl)pyrido[3,4-d]pyridazine-1,7(2H,6H)-dione] the value was 159 nM.
Take `C[C@@H](Nc1nn(C)c(=O)c2cc(=O)n(C3(C(F)(F)F)COC3)cc12)c1cccc(C(F)F)c1F` [Example 156, (R)-4-((1-(3-(difluoromethyl)-2-fluorophenyl)ethyl)amino)-2-methyl-6-(3-(trifluoromethyl)oxetan-3-yl)-2,6-dihydropyrido[3,4-d]pyridazine-1,7-dione]: the IC50 came out at 66.6 nM.
For `CC(Nc1nn(C)c(=O)c2cc(=O)n(C3CC3)cc12)c1cc(F)cc(C(F)(F)F)c1` (centres unmarked) [Example 159, 6-cyclopropyl-4-((1-(3-fluoro-5-(trifluoromethyl)phenyl)ethyl)amino)-2-methylpyrido[3,4-d]pyridazine-1,7(2H,6H)-dione] the value was 3480 nM; for `C[C@@H](Nc1nn(C)c(=O)c2cc(=O)n(C3(C(F)F)CC3)cc12)c1cccc2c1OCC2(F)F` [Example 160, (R)-4-((1-(3,3-difluoro-2,3-dihydrobenzofuran-7-yl)ethyl)amino)-6-(1-(difluoromethyl)cyclopropyl)-2-methyl-2,6-dihydropyrido[3,4-d]pyridazine-1,7-dione], 36.7 nM; for `COCC(F)(F)c1cccc([C@@H](C)Nc2nn(C)c(=O)c3cc(=O)n(C4(C(F)F)CC4)cc23)c1F` [Example 161, 4-[[(1R)-1-[3-(1,1-difluoro-2-methoxy-ethyl)-2-fluoro-phenyl]ethyl]amino]-6-[1-(difluoromethyl)cyclopropyl]-2-methyl-pyrido[3,4-d]pyridazine-1,7-dione], 24.9 nM.
For `COCC(F)(F)c1cccc([C@H](C)Nc2nn(C)c(=O)c3cc(=O)n(C4(C(F)F)CC4)cc23)c1F` [Example 162, 4-[[(1S)-1-[3-(1,1-difluoro-2-methoxy-ethyl)-2-fluoro-phenyl]ethyl]amino]-6-[1-(difluoromethyl)cyclopropyl]-2-methyl-pyrido[3,4-d]pyridazine-1,7-dione] the value was above 10000 nM; for `C[C@@H](Nc1nn(C)c(=O)c2cc(=O)n(C3(C(F)F)CC3)cc12)c1cccc2c(F)coc12` [Example 163, (R)-6-(1-(difluoromethyl)cyclopropyl)-4-((1-(3-fluorobenzofuran-7-yl)ethyl)amino)-2-methyl-2,6-dihydropyrido[3,4-d]pyridazine-1,7-dione], 75.6 nM.
To `C[C@@H](Nc1nn(C)c(=O)c2cc(=O)n(C3(C(F)F)CC3)cc12)c1cccc(C(F)(F)c2ccncc2)c1F` [Example 174, (R)-4-((1-(3-(difluoro(pyridin-4-yl)methyl)-2-fluorophenyl)ethyl)amino)-6-(1-(difluoromethyl)cyclopropyl)-2-methyl-2,6-dihydropyrido[3,4-d]pyridazine-1,7-dione] belongs 4.4 nM.
As to `C[C@H](Nc1nn(C)c(=O)c2cc(=O)n(C3(C(F)F)CC3)cc12)c1cccc(C(F)(F)c2ccncc2)c1F` [Example 175, (S)-4-((1-(3-(difluoro(pyridin-4-yl)methyl)-2-fluorophenyl)ethyl)amino)-6-(1-(difluoromethyl)cyclopropyl)-2-methyl-2,6-dihydropyrido[3,4-d]pyridazine-1,7-dione], the 50% inhibitory concentration (IC50) stood at 4490 nM.
To `Cc1cnc(C(F)(F)c2cccc([C@@H](C)Nc3nn(C)c(=O)c4cc(=O)n(C5(C(F)F)CC5)cc34)c2F)cn1` [Example 176, (R)-4-((1-(3-(difluoro(5-methylpyrazin-2-yl)methyl)-2-fluorophenyl)ethyl)amino)-6-(1-(difluoromethyl)cyclopropyl)-2-methyl-2,6-dihydropyrido[3,4-d]pyridazine-1,7-dione] belongs 20.1 nM.
To `Cc1cnc(C(F)(F)c2cccc([C@H](C)Nc3nn(C)c(=O)c4cc(=O)n(C5(C(F)F)CC5)cc34)c2F)cn1` [Example 177, (S)-4-((1-(3-(difluoro(5-methylpyrazin-2-yl)methyl)-2-fluorophenyl)ethyl)amino)-6-(1-(difluoromethyl)cyclopropyl)-2-methyl-2,6-dihydropyrido[3,4-d]pyridazine-1,7-dione] belongs above 10000 nM; to `C[C@@H](Nc1nn(C)c(=O)c2cc(=O)n(C34COC(CF)(C3)C4)cc12)c1cccc(C(F)F)c1F` [Example 178, (R)-4-((1-(3-(difluoromethyl)-2-fluorophenyl)ethyl)amino)-6-(1-(fluoromethyl)-2-oxabicyclo[2.1.1]hexan-4-yl)-2-methyl-2,6-dihydropyrido[3,4-d]pyridazine-1,7-dione], 76 nM.
On to `C[C@@H](Nc1nn(C)c(=O)c2cc(=O)n(C34COC(C)(C3)C4)cc12)c1cccc(C(F)F)c1F` [Example 179, (R)-4-((1-(3-(difluoromethyl)-2-fluorophenyl)ethyl)amino)-2-methyl-6-(1-methyl-2-oxabicyclo[2.1.1]hexan-4-yl)-2,6-dihydropyrido[3,4-d]pyridazine-1,7-dione], for which the IC50 amounted to 68.4 nM.
In the case of `C[C@@H](Nc1nn(C)c(=O)c2cc(=O)n(C3(C(F)F)CC3)cc12)c1cccc2c1OCCC2(F)F` [Example 180, (R)-4-((1-(4,4-difluorochroman-8-yl)ethyl)amino)-6-(1-(difluoromethyl)cyclopropyl)-2-methyl-2,6-dihydropyrido[3,4-d]pyridazine-1,7-dione], the 50% inhibitory concentration (IC50) came to 179 nM.
Take `C[C@H](Nc1nn(C)c(=O)c2cc(=O)n(C3(C(F)F)CC3)cc12)c1cccc2c1OCCC2(F)F` [Example 181, (S)-4-((1-(4,4-difluorochroman-8-yl)ethyl)amino)-6-(1-(difluoromethyl)cyclopropyl)-2-methyl-2,6-dihydropyrido[3,4-d]pyridazine-1,7-dione]: the IC50 was above 10000 nM.
To `C[C@@H](Nc1nn(C)c(=O)c2cc(=O)n(C3CC3)cc12)c1ccc2ccccc2c1` [Example 182, (R)-6-cyclopropyl-2-methyl-4-((1-(naphthalen-2-yl)ethyl)amino)-2,6-dihydropyrido[3,4-d]pyridazine-1,7-dione] belongs 2440 nM.

Source of the values: patent US20240279221A1, “HETEROCYCLIC COMPOUNDS AND METHODS OF USE” (Schrödinger, Inc., priority 2021, published 2024).
